Data reported in article PMC8657459, “Rosmarinic Acid and Sodium Citrate Have a Synergistic Bacteriostatic Effect against Vibrio Species by Inhibiting Iron Uptake” (International Journal of Molecular Sciences, 2021).

Biological target: T1, VmFbpA (ferric ion-binding protein A) (Vibrio metschnikovii, UniProt A0A9X0R8I3)
T1 construct: gene H8Q88_11990; WP_004394209.1 without the signal peptide '[…]'; 6× His-tag-free apo VmFbpA
Assay: ITC of RA into apo VmFbpA (single-site model); supported by UV-vis peak shift and Fe3+ pull-down inhibition by ICP-MS (IC50 […])

T1 sequence (A0A9X0R8I3 entry or part of it): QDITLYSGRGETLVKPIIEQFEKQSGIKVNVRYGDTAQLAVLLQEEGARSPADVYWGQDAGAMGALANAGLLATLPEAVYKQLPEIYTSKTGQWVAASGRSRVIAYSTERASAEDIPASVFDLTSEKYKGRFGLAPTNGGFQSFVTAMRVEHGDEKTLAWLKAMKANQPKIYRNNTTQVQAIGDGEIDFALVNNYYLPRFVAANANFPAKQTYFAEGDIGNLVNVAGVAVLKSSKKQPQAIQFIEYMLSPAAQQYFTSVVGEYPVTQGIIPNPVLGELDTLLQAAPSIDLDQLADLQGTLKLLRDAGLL

O=C(/C=C/c1ccc(O)c(O)c1)O[C@H](Cc1ccc(O)c(O)c1)C(=O)O [RA, rosmarinic acid] was tested. Which Kd did it give?
The Kd was 8 ± 1 µM.
